# Experimental data taken from article PMC5573760 (Cancer Chemotherapy and Pharmacology, 2017).
# Tests used:
# [1] = format: in vivo, human
# Method: All subjects gave written informed consent; the study was conducted at PRA Health Sciences (Zuidlaren, The Netherlands) in accordance with the Declaration of Helsinki and was approved by an accredited institutional ethics committee (Medisch Ethische Toetsings Commissie, Assen, The Netherlands).
# Subjects remained fasting until 2-h after the end of the infusion. Volunteers stayed in-house until 14 days after the application and subsequently urine and feces were collected for 24-h on Day 16, 20, 27 and 34 if necessary, cf. below.
# Urine was collected pre-dose, at 0–12-h and 12–24 h after the start of the infusion and thereafter over 24-h intervals on Day 2 to Day 14 as well as on Day 16, 20, 27 and 34 (±1 day). Cumulative 24-h fecal samples were collected from Day 1 (day of infusion) to Day 14 and as well as on Day 16, 20, 27 and 34 (±1 day). […] The excreted radioactivity between ambulant visits during the prolongation phase of the clinical study was calculated using interpolation to get a more realistic total excretion value of all subjects (see "Pharmacokinetic analysis").
# After pooling and homogenization of urine and feces samples per time interval, aliquots were stored at −20 °C for total radioactivity determination and at −70°C for metabolic profiling (including blood/plasma samples). For determination of total radioactivity, samples were analyzed with a Perkin Elmer Tri-Carb™ 3100 TR liquid scintillation analyzer (Perkin Elmer, Waltham, MA, USA) with quenching correction. For metabolite profiling, plasma samples were treated with a mixture of acetonitrile (ACN) +0.2% acetic acid, after shaking and centrifugation, the supernatant was concentrated. Urine and feces samples were treated with solid-phase extraction (Waters HLB 30 mg, 1 mL, Waters, Milford, MA, USA) and liquid–liquid extraction (ACN + 0.2% trifluoroacetic acid/water, 80:20 volume/volume), respectively. Subsequently samples from plasma, urine and feces were analyzed by HPLC-LSC on Synergi Polar 4 µm 150 × 2 mm (Phenomenex, Aschaffenburg, Germany) with off-line radioactivity detection by Microbeta^2™ Plus liquid scintillation counter with Ultima Flo™ AP scintillation fluid (Packard Instrument BV, Groningen, The Netherlands).
# For blood/plasma ratio determination, total radioactivity in urine and feces well as data from HPLC analysis data from radioactivity measurement by liquid scintillation counting (LSC) were considered. The amount of radioactivity recovered in the excreta (A E) was related to the administered radioactive dose to establish the radioactive balance. Arithmetic means and coefficients of variation (CV) were calculated for these percentages. […] Cumulative excretion was calculated as sum of the collection intervals. The elimination of the total radioactivity in urine and feces for time-points beyond day 14 was performed by log-linear extrapolation between analyzed time-points. Amounts of radioactivity excreted in urine and feces between two ambulant visits were calculated per interpolated day by linear interpolation of log-transformed excretion data separately per matrix (lnA E(interpolated day) = Δdays × [lnA E(Visit i + 1) − lnA E(Visit i)]/[day (Visit i + 1) − day (Visit i)] + lnA E(Visit i), with A E given as amount of radioactivity excreted in matrix per day and Δdays being the difference between the calculated day and the last available visit with A E > 0). In case no feces sample was provided on an ambulant visit, this visit was neglected for interpolation.
# P-glycoprotein (P-gp) = tested on: P-glycoprotein (P-gp); set-up: method as in Bayer AG, data on file; conditions: in vitro; ref Bayer AG, data on file; cited from earlier work
# cytochrome P450 3A4 = tested on: cytochrome P450 3A4; set-up: method as in Bayer AG, data on file; conditions: in vitro, humans; ref Bayer AG, data on file; cited from earlier work
# PI3K-α = conditions: cited from earlier work
# [2] = tested on: primary malignant B cell lines; conditions: cited from earlier work
# [3] = whole blood, range of 6 subjects
smiles,measurement,setting,value
"COc1c(OCCCN2CCOCC2)ccc2c1N=C(NC(=O)c1cnc(N)nc1)N1CCN=C21 [Copanlisib, copanlisib]","Total radioactivity AUC (0–t last) in blood, geometric mean (% CV)",[1]; in vivo,558 (28.8%) ng-Eq·h/mL
same,"Total radioactivity AUC (0–t last) in blood, range",[1]; in vivo,347–756 ng-Eq·h/mL
same,"Total radioactivity AUC (0–t last) in plasma, geometric mean (% CV)",[1]; in vivo,324 (54.1%) ng-Eq·h/mL
same,"Total radioactivity AUC (0–t last) in plasma, range",[1]; in vivo,150–601 ng-Eq·h/mL
same,"Total radioactivity t last in plasma, median",[1]; plasma,60 h
same,"Total radioactivity t max in plasma, median",[1]; plasma,60 min
same,Recovery of radioactivity extractable from plasma,"[1]; plasma extraction, no indication of covalent adduct formation",> 90%
same,"Total radioactivity C max in plasma, geometric mean (% CV)","[1]; plasma, 12 mg copanlisib (2.76 MBq 14C) 1-h infusion",45.6 (26.0%) ng-Eq/mL
same,"Total radioactivity C max in plasma, range","[1]; plasma, range of 6 subjects",32.1–57.6 ng-Eq/mL
same,"Total radioactivity t last in plasma, range","[1]; plasma, range of 6 subjects",24 to 96 h
same,"Total radioactivity t max in plasma, range","[1]; plasma, range of 6 subjects",30 to 60 min
same,"Total radioactivity C max in blood, geometric mean (% CV)",[1]; whole blood,83.5 (26.3%) ng-Eq/mL
same,"Total radioactivity t last in blood, median",[1]; whole blood,72 h
same,"Total radioactivity t max in blood, median",[1]; whole blood,60 min
same,"Total radioactivity C max in blood, range",[1]; [3],59.2–114 ng-Eq/mL
same,"Total radioactivity t last in blood, range",[1]; [3],36 to 72 h
same,"Total radioactivity t max in blood, range",[1]; [3],30 to 60 min
same,Substrate of efflux transporter P-gp,P-glycoprotein (P-gp),substrate
same,Involvement of cytochrome P450 3A4 in the primary biotransformation step,cytochrome P450 3A4,predominant involvement
same,PI3K-α inhibitory activity,PI3K-α,predominant PI3K-α and PI3K-δ inhibitory activity
same,Tumor cell death,[2],induce tumor cell death including apoptosis
